Patent US6653330B2, “Amide-type triazole compounds” (Sankyo Company, Limited, priority 2000, dated 2003)
Converted amounts (≈) assume the structure as drawn.

What was measured:
[1] = test system: Candida albicans SANK 51486; assay: In vitro antifungal activity (MIC), Candida albicans; assay type: cell-based; settings: SANK51486, MIC = lowest concentration causing at least 80% growth inhibition (IC80), RPMI1640 pH 7.0, 35° C., trans isomers
Protocol: (§1) The antifungal activities of test compounds were assessed according to their minimum inhibitory concentrations (MICs) which were measured by the methods described below.
(§2) Liquid medium: RPMI1640 medium which was buffered to pH 7.0 (without an indicator) with 0.165M 3-(morpholino)propanesulfonic acid was used for Candida albicans and Aspergillus fumigatus. Yeast Nitrogen Base medium which was buffered to pH 7.0 with 0.165M 3-(morpholino)propanesulfonic acid was used for Cryptococcus neoformans.
(§3) Preparation of inoculation fungi solution: Each test fungi solution of Candida albicans and Cryptococcus neoformans was incubated on Sabouraud agar medium at 35° C. for 48 hours. About five colonies of the test fungi having 1 mm diameter were suspended in physiological saline and the transmittance of the suspension was adjusted to Macfarland 0.5 degree. A one thousand-fold diluted suspension of the resulting suspension was prepared by dilution with the liquid medium described above and was used for Candida albicans. A one hundred-fold diluted suspension of the resulting suspension was prepared by dilution with the liquid medium described above and was used for Cryptococcus neoformans. Aspergillus fumigatus was incubated on Potato dextrose agar at 35° C. for five days. Spores on the agar medium were collected with physiological saline containing 0.05% Tween 80 and the number of spores was adjusted to 2.5×10^7/ml using a blood cell counter. A one thousand-fold diluted suspension was prepared by dilution of the resulting spore suspension with the liquid medium described above and was used for Aspergillus fumigatus.
(§4) Preparation of test compound solution: Each test compound was dissolved in 100% dimethyl sulfoxide and serial two-fold dilutions of each compound were prepared with 100% dimethyl sulfoxide. The final concentration of dimethyl sulfoxide was adjusted to not greater than 1% by dilution with each liquid medium described above respectively.
(§5) Assessment method: Each diluted test compound (100 μl), the inoculation fungi solution (80 μl) and Alamar blue solution (20 μl) was sequentially added to each of wells of microtiter plate having 96 wells. The resulting mixture was incubated at 35° C. (30° C. for Aspergillus fumigatus). When the light absorbance at 570 nm of growth control exceeded 0.6, the MICs were determined. The MICs were defined as the lowest compound concentrations causing at least 80% growth inhibition (IC80) compared with the control to which the test compound was not added.

[2] = test system: Aspergillus fumigatus SANK 10569; assay: In vitro antifungal activity (MIC), Aspergillus fumigatus; assay type: cell-based; settings: SANK10569, MIC = lowest concentration causing at least 80% growth inhibition (IC80), RPMI1640 pH 7.0, 30° C., trans isomers
Protocol: as §1, §2, §3, §4, §5

[3] = test system: Cryptococcus neoformans TIMM 1855; assay: In vitro antifungal activity (MIC), Cryptococcus neoformans; assay type: cell-based; settings: TIMM1855, MIC = lowest concentration causing at least 80% growth inhibition (IC80), Yeast Nitrogen Base pH 7.0, 35° C., trans isomers
Protocol: as §1, §2, §3, §4, §5

Row | Compound | MIC [1] [µg/mL] | MIC [2] [µg/mL] | MIC [3] [µg/mL] | melting point [°C]
1 | C[C@@H](SC1COC(c2ccccc2)OC1)[C@](O)(Cn1cncn1)c1ccc(F)cc1F (some centres unmarked) [Comparative compound (A), reference compound] | 0.063 (≈ 0.141 µM) | 4 (≈ 8.94 µM) | 0.25 (≈ 0.559 µM) | 
2 | C[C@@H](S[C@H]1CO[C@H](c2ccc(C(=O)Nc3ccc(OCC(F)(F)C(F)F)cc3)cc2)OC1)[C@](O)(Cn1cncn1)c1ccc(F)cc1F [Example 1, 4-[trans-5-[[(1R,2R)-2-(2,4-Difluorophenyl)-2-hydroxy-1-methyl-3-(1H-1,2,4-triazol-1-yl)propyl]thio]-1,3-dioxan-2-yl]-4′-(2,2,3,3-tetrafluoropropoxy)benzanilide] | 0.016 (≈ 0.023 µM) | 0.125 (≈ 0.179 µM) | 0.063 (≈ 0.0904 µM) | 156
3 | C[C@@H](S[C@H]1CO[C@H](c2ccc(C(=O)Nc3ccc(O)cc3)cc2)OC1)[C@](O)(Cn1cncn1)c1ccc(F)cc1F [Example 23, 4-[trans-5-[[(1R,2R)-2-(2,4-Difluorophenyl)-2-hydroxy-1-methyl-3-(1H-1,2,4-triazol-1-yl)propyl]thio]-1,3-dioxan-2-yl]-4′-hydroxybenzanilide] | 0.016 (≈ 0.0275 µM) | 0.5 (≈ 0.858 µM) | 0.25 (≈ 0.429 µM) | 254
4 | C[C@@H](S[C@H]1CO[C@H](c2ccc(C(=O)NCc3ccc(C#N)cc3)cc2)OC1)[C@](O)(Cn1cncn1)c1ccc(F)cc1F [Example 26, N-(4-Cyanobenzyl)-4-[trans-5-[[(1R,2R)-2-(2,4-difluorophenyl)-2-hydroxy-1-methyl-3-(1H-1,2,4-triazol-1-yl)propyl]thio]-1,3-dioxan-2-yl]benzamide] | 0.016 (≈ 0.0264 µM) | 0.25 (≈ 0.413 µM) | 0.25 (≈ 0.413 µM) | 188

Now those with a lower MIC [1], led by results:

Row | MIC [1] [µg/mL] | MIC [2] [µg/mL] | MIC [3] [µg/mL] | melting point [°C] | Compound
5 | ≤ 0.008 | 0.063 (≈ 0.0982 µM) | 0.063 (≈ 0.0982 µM) | 114 | C[C@@H](S[C@H]1CO[C@H](c2ccc3cc(C(=O)Nc4ccc(C#N)cc4)ccc3c2)OC1)[C@](O)(Cn1cncn1)c1ccc(F)cc1F [Example 3, 4′-Cyano-6-[trans-5-[[(1R,2R)-2-(2,4-difluorophenyl)-2-hydroxy-1-methyl-3-(1H-1,2,4-triazol-1-yl)propyl]thio]-1,3-dioxan-2-yl]-2-naphthoanilide]
6 | ≤ 0.008 | 2 (≈ 3.33 µM) | 0.25 (≈ 0.416 µM) | 90 | C[C@@H](S[C@H]1CO[C@H](c2cccc(C(=O)Nc3ccc(Cl)cc3)c2)OC1)[C@](O)(Cn1cncn1)c1ccc(F)cc1F [Example 9, 4′-Chloro-3-[trans-5-[[(1R,2R)-2-(2,4-difluorophenyl)-2-hydroxy-1-methyl-3-(1H-1,2,4-triazol-1-yl)propyl]thio]-1,3-dioxan-2-yl]benzanilide]
